Experiments:
[1] = test system: RAF proto-oncogene serine/threonine-protein kinase (Homo sapiens), P04049 [Y340D,Y341D]; experiment: Selectivity interaction (Kinase panel (Z-LYTE Assay)) EUB0001632a RAF1; conditions: at 10 µM
[2] = target: Vascular endothelial growth factor receptor 1 (Homo sapiens) (UniProt P17948); conditions: at 10 µM
[3] = target: T1, TGF-beta receptor type-1 (Homo sapiens) (UniProt P36897); conditions: at 10 µM
T1 sequence (whole entry): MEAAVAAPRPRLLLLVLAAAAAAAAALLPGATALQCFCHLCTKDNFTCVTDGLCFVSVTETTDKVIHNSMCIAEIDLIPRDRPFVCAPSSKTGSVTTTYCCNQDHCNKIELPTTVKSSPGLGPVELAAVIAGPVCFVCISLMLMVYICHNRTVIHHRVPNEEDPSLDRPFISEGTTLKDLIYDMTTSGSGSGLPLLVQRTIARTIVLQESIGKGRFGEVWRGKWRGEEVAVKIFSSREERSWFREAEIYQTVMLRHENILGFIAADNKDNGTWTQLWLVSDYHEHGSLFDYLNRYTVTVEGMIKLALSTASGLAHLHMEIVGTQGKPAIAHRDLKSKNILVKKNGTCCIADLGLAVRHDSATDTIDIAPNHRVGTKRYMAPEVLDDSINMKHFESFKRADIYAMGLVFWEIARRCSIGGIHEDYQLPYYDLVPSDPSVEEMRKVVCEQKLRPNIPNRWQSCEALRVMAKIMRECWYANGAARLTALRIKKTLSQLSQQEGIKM

[4] = target: T2, Serine/threonine-protein kinase D3 (Homo sapiens) (UniProt O94806); experiment: Selectivity interaction (ActivX KiNativ screen (kinase selectivity in THP-1 cell lysates)) EUB0000639a PRKD3; type: subcellular; conditions: lysate, at 0.2 µM
T2 sequence (whole entry): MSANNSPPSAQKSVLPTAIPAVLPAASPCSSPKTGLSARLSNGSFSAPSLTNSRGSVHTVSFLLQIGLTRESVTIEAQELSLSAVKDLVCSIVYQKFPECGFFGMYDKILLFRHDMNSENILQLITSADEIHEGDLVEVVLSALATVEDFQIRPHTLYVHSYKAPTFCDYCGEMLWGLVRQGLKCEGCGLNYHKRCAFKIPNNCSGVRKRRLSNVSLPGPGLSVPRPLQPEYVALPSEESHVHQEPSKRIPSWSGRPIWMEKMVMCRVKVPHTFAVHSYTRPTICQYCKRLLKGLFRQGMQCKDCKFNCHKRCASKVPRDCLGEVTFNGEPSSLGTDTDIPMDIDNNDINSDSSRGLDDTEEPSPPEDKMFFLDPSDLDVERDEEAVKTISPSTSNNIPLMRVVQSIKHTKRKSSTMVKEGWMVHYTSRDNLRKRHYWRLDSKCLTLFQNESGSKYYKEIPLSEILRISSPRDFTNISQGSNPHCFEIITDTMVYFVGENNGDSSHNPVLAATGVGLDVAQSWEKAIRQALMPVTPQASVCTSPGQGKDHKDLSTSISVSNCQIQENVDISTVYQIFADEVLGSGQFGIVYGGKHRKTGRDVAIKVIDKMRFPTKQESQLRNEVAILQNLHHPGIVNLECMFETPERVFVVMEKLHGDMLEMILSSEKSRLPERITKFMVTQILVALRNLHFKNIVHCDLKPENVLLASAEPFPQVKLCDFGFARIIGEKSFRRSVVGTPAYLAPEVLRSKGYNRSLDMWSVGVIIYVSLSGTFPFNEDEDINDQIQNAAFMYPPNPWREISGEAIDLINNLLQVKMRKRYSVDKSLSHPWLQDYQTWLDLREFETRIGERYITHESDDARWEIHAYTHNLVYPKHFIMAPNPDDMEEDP

[5] = Selectivity interaction (ActivX KiNativ screen (kinase selectivity in THP-1 cell lysates)) EUB0000639a STLK6; conditions: Selectivity number of targets 283, Source Knowledge https://pubmed.ncbi.nlm.nih.gov/28498658/

RAF proto-oncogene serine/threonine-protein kinase (Homo sapiens), P04049 [Y340D,Y341D], sequence (P04049 whole entry Y340D/Y341D): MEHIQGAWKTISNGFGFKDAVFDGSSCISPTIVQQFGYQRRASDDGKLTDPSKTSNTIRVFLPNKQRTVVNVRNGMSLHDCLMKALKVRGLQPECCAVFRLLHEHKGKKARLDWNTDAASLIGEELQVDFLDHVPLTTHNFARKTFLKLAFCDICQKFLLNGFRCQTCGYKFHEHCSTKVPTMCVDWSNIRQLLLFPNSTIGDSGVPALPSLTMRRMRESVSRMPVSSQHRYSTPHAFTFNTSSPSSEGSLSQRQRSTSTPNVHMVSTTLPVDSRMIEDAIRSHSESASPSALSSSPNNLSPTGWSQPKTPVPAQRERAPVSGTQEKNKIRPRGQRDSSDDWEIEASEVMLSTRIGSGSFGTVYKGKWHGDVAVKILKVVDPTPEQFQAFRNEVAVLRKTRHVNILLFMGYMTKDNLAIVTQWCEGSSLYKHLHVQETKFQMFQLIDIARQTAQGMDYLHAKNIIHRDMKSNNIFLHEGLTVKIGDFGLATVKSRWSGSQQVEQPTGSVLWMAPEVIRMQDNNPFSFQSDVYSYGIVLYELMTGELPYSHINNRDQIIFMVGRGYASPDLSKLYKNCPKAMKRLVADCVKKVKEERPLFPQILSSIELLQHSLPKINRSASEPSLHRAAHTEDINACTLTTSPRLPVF
Vascular endothelial growth factor receptor 1 (Homo sapiens), sequence (P17948 whole entry): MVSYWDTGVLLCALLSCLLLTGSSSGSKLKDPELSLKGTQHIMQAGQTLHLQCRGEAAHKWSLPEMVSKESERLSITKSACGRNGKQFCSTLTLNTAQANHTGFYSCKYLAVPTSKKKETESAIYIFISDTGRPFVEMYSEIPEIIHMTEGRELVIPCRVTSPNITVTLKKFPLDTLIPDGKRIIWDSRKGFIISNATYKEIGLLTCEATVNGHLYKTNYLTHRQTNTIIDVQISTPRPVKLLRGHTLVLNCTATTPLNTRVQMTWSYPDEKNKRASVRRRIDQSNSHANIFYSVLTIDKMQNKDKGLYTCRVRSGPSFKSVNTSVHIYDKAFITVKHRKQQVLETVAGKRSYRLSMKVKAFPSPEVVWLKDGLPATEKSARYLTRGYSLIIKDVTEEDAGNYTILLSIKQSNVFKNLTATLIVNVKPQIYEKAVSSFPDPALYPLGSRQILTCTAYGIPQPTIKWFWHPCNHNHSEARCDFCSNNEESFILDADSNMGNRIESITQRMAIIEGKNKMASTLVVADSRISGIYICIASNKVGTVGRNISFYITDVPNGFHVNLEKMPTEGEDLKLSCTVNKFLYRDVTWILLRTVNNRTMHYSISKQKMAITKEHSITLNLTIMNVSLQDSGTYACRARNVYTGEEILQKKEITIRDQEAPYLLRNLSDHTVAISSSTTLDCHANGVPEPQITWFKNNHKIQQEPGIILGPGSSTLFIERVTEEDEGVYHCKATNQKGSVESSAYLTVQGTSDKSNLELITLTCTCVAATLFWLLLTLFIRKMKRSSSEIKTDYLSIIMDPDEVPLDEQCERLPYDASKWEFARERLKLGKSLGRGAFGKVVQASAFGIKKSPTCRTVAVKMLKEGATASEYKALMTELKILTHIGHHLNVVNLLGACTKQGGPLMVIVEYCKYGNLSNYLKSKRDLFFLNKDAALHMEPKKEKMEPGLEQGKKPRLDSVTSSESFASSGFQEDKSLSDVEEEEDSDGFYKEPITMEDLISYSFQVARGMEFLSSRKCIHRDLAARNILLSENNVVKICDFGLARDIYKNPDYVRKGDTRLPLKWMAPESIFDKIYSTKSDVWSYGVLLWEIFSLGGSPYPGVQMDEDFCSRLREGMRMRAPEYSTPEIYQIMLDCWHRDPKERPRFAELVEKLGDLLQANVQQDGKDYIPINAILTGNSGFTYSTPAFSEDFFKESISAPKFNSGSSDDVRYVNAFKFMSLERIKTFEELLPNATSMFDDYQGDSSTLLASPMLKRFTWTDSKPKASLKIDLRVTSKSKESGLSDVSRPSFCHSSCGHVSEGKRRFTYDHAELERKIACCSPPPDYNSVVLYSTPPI

For `Cn1cc(-n2cnc3c(NCc4nc5cc(Cl)c(Cl)cc5[nH]4)nc(N4CCOCC4)nc32)cn1`, the % of control [1] was -1.53%.

Work on `COCC(=O)NC/C=C/c1ccc2ncnc(Nc3ccc(Oc4ccc(C)nc4)c(C)c3)c2c1` [CP-724714] yielded a % of control [2] of 88%.

`Cc1cc([C@@H](C)Nc2ccccc2C(=O)O)c2nc(N3CCOCC3)cc(=O)n2c1` [AZD-6482] showed a % of control [3] of 100%.

For `CC[C@@H]1[C@H](F)C(=O)N[C@@H]1COc1nccc2cc(C(N)=O)c(OC)cc12` [ZIMLOVISERTIB], the % of inhibition [4] was -4.6%, the “% of inhibition” value ([5]; Selectivity number of off-targets 0, at 0.01 µM) was 4.1% and the “% of inhibition” value ([5]; Selectivity number of off-targets 0, at 0.04 µM) was 23.1%. The “% of inhibition” value ([5]; Selectivity number of off-targets 0, at 0.2 µM) was 11.5%, the “% of inhibition” value ([5]; Selectivity number of off-targets 1, at 1 µM) was 7.9% and the “% of inhibition” value ([5]; Selectivity number of off-targets 5, at 5 µM) was 11.7%.

Reference: ChEMBL document CHEMBL5465560, “Selectivity Literature for EUbOPEN Chemogenomic Library” (2024)
